From patent US9884863B2, “STAT3 inhibitor” (Board of Regents, The University of Texas System, priority 2013, dated 2018)
pIC50: −log10 of the molar value. Read-outs that look alike come from different tables or passages of the source.

Tests used:
MDA-MB-231 = assay: MTS cell proliferation assay, MDA-MB-231; format: cell-based, human; details: Homo sapiens, read-out: IC50 MDA-MB-231 (Table 1)
Experimental: (§1) Cancer cells (breast cancer cell lines MCF-7, MDA-MB-361, SKBR3 and MDA-MB-231, pancreatic cancer cell lines AsPC-1. BxPC3 and Panc-1) were seeded in 96-well plates at a density of 1000-2000 cells/well and treated with DMSO, 0.01, 0.1, 1, 5, 10, and 100 mM of STAT3 individual inhibitors for 72 hrs. Proliferation was measured by treating cells with the 3-(4,5-dimethylthiazol-2-yl)-5-(3-carboxymethoxyphenyl)-2-(4-sulfophenyl)-2H-tetrazolium) (MTS) in a CellTiter 96t AQueous Non-Radioactive Cell Proliferation Assay kit from Promega, Madison, Wis., USA). Absorbance of all wells was determined by measuring OD at 550 nm after 1 hr incubation at 37° C. on a 96-well iMark™ Microplate Absorbance Reader (BioRad, Hercules, Calif.).
In Vitro Determination of Effects of Synthesized Compounds on Cancer Cell Proliferation. Cancer cells (breast cancer cell lines MCF-7 and MDA-MB-231, pancreatic cancer cell lines AsPC-1 and Panc-1) were seeded in 96-well plates at a density of 2×10^3 cells/well and treated with DMSO, 0.01, 0.1, 1, 5, 10, and 100 μM of individual STAT3 inhibitors for 72 h. Proliferation was measured by treating cells with the 3-(4,5-dimethylthiazol-2-yl)-5-(3-carboxymethoxyphenyl)-2-(4-sulfophenyl)-2H-tetrazolium) (MTS) in a CellTiter 96t Aqueous Non-Radioactive Cell Proliferation Assay kit (Promega, Madison, Wis., USA). Absorbance of all wells was determined by measuring OD at 550 nm after 1 h incubation at 37° C. on a 96-well iMark™ Microplate Absorbance Reader (BioRad, Hercules, Calif.). Each individual compound was tested in quadruplicate wells for each concentration. […]

MCF-7 = assay: MTS cell proliferation assay, MCF-7; format: cell-based, human
Experimental: as §1, with “BxPC3 and Panc-1) were seeded in 96-well plates at a density of 1000-2000 cells/well and treated with DMSO, 0.01, 0.1, 1, 5, 10, and 100 mM of STAT3 individual inhibitors for 72 hrs.” left out, “Calif.). Each individual compound was tested in quadruplicate wells for each concentration, and the results were reported as mean absorption±s.e.” for “Calif.).”
In Vitro Determination of Effects of Synthesized Compounds on Cancer Cell Proliferation. Cancer cells (breast cancer cell lines MCF-7 and MDA-MB-231, pancreatic cancer cell lines AsPC-1 and Panc-1) were […], 0.01, 0.1, 1, 5, 10, […] Proliferation was measured by treating cells with the 3-(4,5-dimethylthiazol-2-yl)-5-(3-carboxymethoxyphenyl)-2-(4-sulfophenyl)-2H-tetrazolium) (MTS) in a CellTiter 96t Aqueous Non-Radioactive Cell Proliferation Assay kit (Promega, Madison, Wis., USA). Absorbance of all wells was determined by measuring OD at 550 nm after 1 h incubation at 37° C. on a 96-well iMark™ Microplate Absorbance Reader (BioRad, Hercules, Calif.). Each individual compound was tested in quadruplicate wells for each concentration.

[1] = MDA-MB-231, ER-negative breast cancer, 72 hrs, >10 = no effect
[2] = Homo sapiens, MCF7, 72 h; read-out: IC50 MCF-7 (Table 1)
[3] = Homo sapiens, MCF7, 72 h, read-out: IC50 MCF-7 (Table 1)
[4] = MCF-7, 48 hr, μM concentrations

Structure (SMILES) | pIC50 (MDA-MB-231; [1]) | pIC50 (MCF-7; [2]) | pIC50 (MDA-MB-231; MDA-MB-231, 72 h) | pIC50 (MCF-7; [3]) | other results
O=C(Nc1ccc2c(c1)S(=O)(=O)C=C2)c1c2ccccc2nc2ccccc12 | – | – | – | – | melting point: 237 to 238 °C
C[C@H](NC(=O)c1cc(Cl)ccc1O)c1ccccc1 [Compound 9, (S)-5-Chloro-2-hydroxy-N-(1-phenylethyl)benzamide] | – | – | – | – | melting point: 124 to 125 °C
O=C(Nc1nnc(-c2ccco2)o1)c1cc(Cl)ccc1O [Compound 13, 5-Chloro-N-(5-furan-2-yl-[1,3,4]oxadiazol-2-yl)-2-hydroxybenzamide] | – | – | – | – | melting point: 196 to 197 °C
COc1ccc(S(=O)(=O)Nc2ccc3c(c2)S(=O)(=O)C=C3)cc1 [HJC-3-68, N-(1,1-Dioxo-1H-1λ^6-benzo[b]thiophen-6-yl)-4-methoxybenzenesulfonamide] | 5.57 | 5.46 | – | – | –
CN(C)CCOc1ccc(Cl)cc1C(=O)Nc1ccc2c(c1)S(=O)(=O)C=C2 [HJC-3-69, 5-Chloro-2-(2-dimethylaminoethoxy)-N-(1,1-dioxo-1H-1λ^6-benzo[b]thiophen-6-yl) benzamide] | – | – | 5.57 | 5.46 | inhibition on breast cancer cell proliferation (FIG. 1) (MCF-7; [4]): significant inhibition
O=C(Nc1ccc2c(c1)S(=O)(=O)C=C2)c1cccnc1 [HJC-3-76, N-(1,1-Dioxo-1H-1λ^6-benzo[b]thiophen-6-yl)-nicotinamide] | – | – | < 5.00 | 4.81 | –
O=C(Nc1ccc2c(c1)S(=O)(=O)C=C2)c1cc(Cl)ccc1OCCBr [HJC-3-77, 2-(2-Bromo-ethoxy)-5-chloro-N-(1,1-dioxo-1H-1λ^6-benzo[b]thiophen-6-yl)benzamide] | – | – | < 5.00 | < 5.00 | –
CN1CCN(CCOc2ccc(Cl)cc2C(=O)Nc2ccc3c(c2)S(=O)(=O)C=C3)CC1 [HJC-3-78, 5-Chloro-N-(1,1-dioxo-1H-1λ^6-benzo[b]thiophen-6-yl)-2-[2-(4-methylpiperazin-1-yl)-ethoxy]benzamide] | 5.54 | 5.39 | – | – | –
O=C(Nc1ccc2c(c1)S(=O)(=O)C=C2)c1cc(Cl)ccc1OCCN1CCCCC1 [HJC-3-79, 5-Chloro-N-(1,1-dioxo-1H-1λ^6-benzo[b]thiophen-6-yl)-2-(2-piperidin-1-yl-ethoxy)benzamide] | 5.60 | 5.43 | – | – | –
O=C(Nc1ccc2c(c1)S(=O)(=O)C=C2)c1ccncc1 [HJC-3-80, N-(1,1-Dioxo-1H-1λ^6-benzo[b]thiophen-6-yl)-isonicotinamide] | < 5.00 | < 5.00 | – | – | –
CN1CCC(Oc2ccc(Cl)cc2C(=O)Nc2ccc([N+](=O)[O-])cc2Cl)CC1 [HJC-3-81, 5-Chloro-N-(2-chloro-4-nitrophenyl)-2-(1-methylpiperidin-4-yloxy)benzamide] | – | – | 5.57 | 5.39 | inhibition on breast cancer cell proliferation (FIG. 1) (MCF-7; [4]): significant inhibition
CN1CCC(Oc2ccc(Cl)cc2C(=O)Nc2ccc3c(c2)S(=O)(=O)C=C3)CC1 [HJC-3-82, 5-Chloro-N-(1,1-dioxo-1H-1λ^6-benzo[b]thiophen-6-yl)-2-(1-methyl-piperidin-4-yloxy) benzamide] | – | – | 5.57 | 5.45 | –
O=C(Nc1ccc([N+](=O)[O-])cc1Cl)c1cc(Cl)ccc1OCCN1CCCCC1 [HJC-3-84, 5-Chloro-N-(2-chloro-4-nitrophenyl)-2-(2-piperidin-1-yl-ethoxy)benzamide] | < 5.00 | < 5.00 | – | – | –
O=C(Nc1ccc2c(c1)S(=O)(=O)C=C2)c1cnc2ccccc2c1 [HJC-3-91, Quinoline-3-carboxylic acid (1,1-dioxo-1H-1λ^6-benzo[b]thiophen-6-yl)amide] | 5.21 | 5.53 | – | – | inhibition on breast cancer cell proliferation (FIG. 1) (MCF-7; [4]): significant inhibition
NCCOc1ccc(Cl)cc1C(=O)Nc1ccc2c(c1)S(=O)(=O)C=C2 [HJC-3-93, 2-(2-Amino-ethoxy)-5-chloro-N-(1,1-dioxo-1H-1λ^6-benzo[b]thiophen-6-yl)benzamide] | 5.51 | 5.46 | – | – | –
O=C(Nc1ccc2c(c1)S(=O)(=O)C=C2)c1ccnc(Br)c1 [HJC-3-95, 2-Bromo-N-(1,1-dioxo-1H-1λ^6-benzo[b]thiophen-6-yl)-isonicotinamide] | < 5.00 | 5.44 | – | – | –
O=C(Nc1ccc([N+](=O)[O-])cc1Cl)c1cc(Cl)ccc1OCCF [HJC-3-98, 5-Chloro-N-(2-chloro-4-nitro-phenyl)-2-(2-fluoro-ethoxy)benzamide] | – | – | < 5.00 | < 5.00 | –
O=C(Nc1ccc2c(c1)S(=O)(=O)C=C2)c1cc(Cl)ccc1OCCF [HJC-3-99, 5-Chloro-N-(1,1-dioxo-1H-1λ^6-benzo[b]thiophen-6-yl)-2-(2-fluoroethoxy)benzamide] | – | – | 5.35 | 5.40 | –
N#C/C(=C\c1ccc(O)c(O)c1)C(=O)Nc1ccc2c(c1)S(=O)(=O)C=C2 [HJC-4-11, 2-Cyano-3-(3,4-dihydroxy-phenyl)-N-(1,1-dioxo-1H-1λ^6-benzo[b]thiophen-6-yl)-acrylamide] | – | – | < 5.00 | 5.37 | –
O=C(Nc1ccc2c(c1)S(=O)(=O)C=C2)c1cc(Cl)ccc1OC1CCNCC1 [HJC-4-15, 5-Chloro-N-(1,1-dioxo-1H-1λ^6-benzo[b]thiophen-6-yl)-2-(piperidin-4-yloxy)benzamide] | 5.55 | 5.38 | – | – | –
CC(=O)N1CCC(Oc2ccc(Cl)cc2C(=O)Nc2ccc([N+](=O)[O-])cc2Cl)CC1 [HJC-4-22, 2-(1-Acetylpiperidin-4-yloxy)-5-chloro-N-(2-chloro-4-nitrophenyl)benzamide] | 5.23 | < 5.00 | – | – | –
Nc1ccc(NC(=O)c2cc(Cl)ccc2OC2CCNCC2)c(Cl)c1 [HJC-4-23, N-(4-Amino-2-chlorophenyl)-5-chloro-2-(piperidin-4-yloxy)benzamide] | – | – | < 5.00 | < 5.00 | –
CS(=O)(=O)N1CCC(Oc2ccc(Cl)cc2C(=O)Nc2ccc([N+](=O)[O-])cc2Cl)CC1 [HJC-4-24, 5-Chloro-N-(2-chloro-4-nitrophenyl)-2-(1-methanesulfonylpiperidin-4-yloxy)benzamide] | < 5.00 | < 5.00 | – | – | –
CC(=O)NCCOc1ccc(Cl)cc1C(=O)Nc1ccc([N+](=O)[O-])cc1Cl [HJC-4-25, 2-(2-Acetylaminoethoxy)-5-chloro-N-(2-chloro-4-nitrophenyl)benzamide] | < 5.00 | < 5.00 | – | – | –
CS(=O)(=O)NCCOc1ccc(Cl)cc1C(=O)Nc1ccc([N+](=O)[O-])cc1Cl [HJC-4-26, 5-Chloro-N-(2-chloro-4-nitrophenyl)-2-(2-methanesulfonylaminoethoxy)benzamide] | < 5.00 | < 5.00 | – | – | –
CC(=O)N1CCN(CCOc2ccc(Cl)cc2C(=O)Nc2ccc([N+](=O)[O-])cc2Cl)CC1 [HJC-4-27, 2-[2-(4-Acetylpiperazin-1-yl)-ethoxy]-5-chloro-N-(2-chloro-4-nitrophenyl)benzamide] | < 5.00 | < 5.00 | – | – | –
NCCCCOc1ccc(Cl)cc1C(=O)Nc1ccc([N+](=O)[O-])cc1Cl [HJC-4-31, 2-(4-Aminobutoxy)-5-chloro-N-(2-chloro-4-nitrophenyl)benzamide] | 5.63 | 5.43 | – | – | inhibition on breast cancer cell proliferation (FIG. 1) (MCF-7; [4]): significant inhibition
CC(=O)Nc1ccc(NC(=O)c2cc(Cl)ccc2OC2CCNCC2)c(Cl)c1 [HJC-4-32, N-(4-Acetylamino-2-chloro-phenyl)-5-chloro-2-(piperidin-4-yloxy)benzamide] | < 5.00 | < 5.00 | – | – | –
CS(=O)(=O)N(c1ccc(NC(=O)c2cc(Cl)ccc2OC2CCNCC2)c(Cl)c1)S(C)(=O)=O [HJC-4-35-1] | < 5.00 | < 5.00 | – | – | –
CS(=O)(=O)Nc1ccc(NC(=O)c2cc(Cl)ccc2OC2CCNCC2)c(Cl)c1 [HJC-4-35-2] | < 5.00 | < 5.00 | – | – | –
